Laboratory results taken from PubChem BioAssay (NCI).
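These data come from cells grown in 96-well plates and exposed to compound for 48 hours at five concentrations. Abbreviation: GI50, concentration required for 50% inhibition of growth. TGI is the concentration that stops growth completely.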

Columns and labels:
Assay in all cases: NCI-60 cell line screen, 48 h
[1] = test system: HT29 colon
[2] = test system: HCT-15 colon
[3] = test system: RPMI-8226 leukemia
[4] = test system: SK-MEL-28 melanoma
[5] = test system: NCI-H522 lung
[6] = test system: MCF7 breast
[7] = test system: SF-268 CNS
[8] = test system: BT-549 breast
[9] = test system: SW-620 colon
[10] = test system: CAKI-1 renal

For `Cc1nc2ccccc2c(/C=C/c2ccc(Cl)cc2)c1C(=O)/C=C/c1ccccc1`, the GI50 [1] was 1.58 µM, the TGI [1] was over 100 µM and the GI50 [2] was 1.36 µM. For the same compound, the TGI [2] was 4.03 µM, the GI50 [3] was 1.26 µM and the TGI [3] was 6.5 µM. For the same compound, the GI50 [4] was 1.74 µM and the TGI [4] was 3.22 µM.

Compound `[N-]=[N+]=C(C(=O)N1CCCC1=O)S(=O)(=O)c1ccccc1` has a TGI [5] of over 100 µM, a TGI [6] of over 100 µM and a TGI [2] of over 100 µM. For the same compound, the TGI [7] was over 100 µM, the TGI [8] was over 100 µM and the TGI [9] was over 100 µM. It also gave a TGI [3] of over 100 µM and a TGI [4] of over 100 µM.

`CC1=C(C)C(=O)C(C2=CC(=O)C=CC2=O)=C(C2=CC(=O)C=CC2=O)C1=O` was tested, and the TGI [5] was 64.7 µM, the TGI [6] was over 81.4 µM and the TGI [1] was over 100 µM. It also gave a TGI [2] of over 100 µM, a TGI [10] of over 56.6 µM and a TGI [7] of over 100 µM. The TGI [8] was over 100 µM, the TGI [9] was over 76.2 µM and the TGI [4] was over 100 µM.

With `CNc1ncnc2c1cnn2Cc1cn(COCC(O)CO)nn1` (configuration not stated) the TGI [6] was over 100 µM, the TGI [1] was over 100 µM and the TGI [2] was over 100 µM. The TGI [10] was over 100 µM, the TGI [7] was 22 µM and the TGI [8] was over 100 µM. The TGI [9] was over 100 µM, the TGI [3] was over 100 µM and the TGI [4] was over 100 µM.

`CCOC(=O)N1CCC(=C2c3ccc(Cl)cc3CCc3cccnc32)CC1` was tested, and the TGI [6] was 23.8 µM, the TGI [1] was 16.9 µM and the TGI [2] was 23.4 µM. The TGI [9] was 34.6 µM, the TGI [3] was 32.9 µM and the TGI [4] was 20.3 µM.

`NC1CC=C(COC(=O)C(O)(c2ccccc2)C2CC2)CC1` (configuration not stated) was tested, and the TGI [5] was over 100 µM, the TGI [6] was over 100 µM and the TGI [1] was over 100 µM. For the same compound, the TGI [2] was over 100 µM, the TGI [10] was over 100 µM and the TGI [7] was over 100 µM. For the same compound, the TGI [9] was over 100 µM, the TGI [3] was over 100 µM and the TGI [4] was over 100 µM.

`CCN1CCC(O)(/C=C/c2ccc(C(C)C)cc2)C(C(=O)/C=C/c2ccc(C(C)C)cc2)C1` (configuration not stated) gave a TGI [5] of 4.21 µM, a TGI [6] of 14 µM and a TGI [1] of 6.21 µM. It also gave a TGI [2] of 4.63 µM, a TGI [10] of 8.86 µM and a TGI [7] of 4.31 µM. The TGI [8] was 16.2 µM, the TGI [9] was 7.25 µM and the TGI [4] was 11.7 µM.

For `O=C(CSc1nc2ccccc2c(=O)n1-c1ccccc1)N=Nc1c(O)[nH]c2ccc(F)cc12`, the TGI [6] was 4.3 µM, the TGI [1] was 6.96 µM and the TGI [10] was 3.46 µM. For the same compound, the TGI [7] was 4.93 µM, the TGI [9] was 15.2 µM and the TGI [3] was 4.65 µM. For the same compound, the TGI [4] was 4.54 µM.

Work on `CC1(C)N=C(c2ccccn2)C(c2ccccn2)=NC1(C)C` yielded a TGI [1] of over 100 µM, a TGI [2] of over 100 µM and a TGI [10] of over 100 µM. For the same compound, the TGI [7] was over 100 µM, the TGI [9] was over 100 µM and the TGI [3] was over 100 µM.

For `NC(N)=NCCCC(NC(=O)OCCCCn1ccc(N)nc1=O)C(=O)O` (configuration not stated), the TGI [6] was over 100 µM, the TGI [1] was over 100 µM and the TGI [2] was over 100 µM. It also gave a TGI [10] of over 100 µM, a TGI [7] of over 100 µM and a TGI [8] of over 100 µM. For the same compound, the TGI [9] was over 100 µM, the TGI [3] was over 100 µM and the TGI [4] was over 100 µM.

In the case of `O=C(O)CCC(NC(=O)c1ccc(Nc2nc3cc(C(F)(F)F)ccc3nc2C(=O)O)cc1)C(=O)O` (configuration not stated), the TGI [5] is reported as over 100 µM, the TGI [6] is reported as over 100 µM and the TGI [1] is reported as over 100 µM. It also gave a TGI [2] of over 100 µM, a TGI [7] of over 100 µM and a TGI [9] of over 100 µM. The TGI [3] was over 100 µM and the TGI [4] was over 100 µM.

Work on `CCC(NC1=NCCO1)c1cccs1` (configuration not stated) yielded a TGI [5] of 35.6 µM, a TGI [6] of 29 µM and a TGI [1] of 63.9 µM. The TGI [2] was 30.2 µM, the TGI [10] was 30.9 µM and the TGI [8] was 37.7 µM. It also gave a TGI [9] of over 100 µM, a TGI [3] of over 100 µM and a TGI [4] of 29 µM.

For `CCCCNC(=O)/N=C/c1c(O)c2ccccc2oc1=O`, the TGI [1] was over 100 µM, the TGI [2] was over 100 µM and the TGI [7] was over 100 µM. For the same compound, the TGI [9] was over 100 µM, the TGI [3] was over 100 µM and the TGI [4] was over 100 µM.

In the case of `CC(=O)Nc1ccccc1NC1CC(C)N(c2ccccc2)N1C(C)=O` (configuration not stated), the TGI [6] is reported as over 10 µM, the TGI [1] is reported as over 10 µM and the TGI [2] is reported as over 10 µM. For the same compound, the TGI [10] was over 10 µM, the TGI [7] was over 10 µM and the TGI [9] was over 10 µM. The TGI [3] was over 10 µM and the TGI [4] was over 10 µM.

`O=c1oc2ccccc2c(O)c1C(C/C(CCN1CCCC1)=N\Nc1ccccc1)c1ccccc1` (configuration not stated) gave a TGI [5] of over 100 µM, a TGI [1] of over 100 µM and a TGI [2] of over 100 µM. The TGI [10] was over 100 µM, the TGI [7] was over 100 µM and the TGI [9] was over 100 µM. For the same compound, the TGI [3] was 77.7 µM.

`Cc1ccc([N+](=O)[O-])c2c(NCC(O)CO)ccnc12` (configuration not stated) showed a TGI [6] of over 100 µM, a TGI [1] of over 100 µM and a TGI [2] of over 100 µM. For the same compound, the TGI [10] was over 100 µM, the TGI [7] was over 100 µM and the TGI [8] was over 100 µM. It also gave a TGI [9] of over 100 µM, a TGI [3] of over 100 µM and a TGI [4] of over 100 µM.

`Oc1ccc(Cl)cc1C1=NC(/N=C\c2ccccc2)=NC(c2ccccc2)C1` (configuration not stated) showed a TGI [5] of over 100 µM, a TGI [6] of over 100 µM and a TGI [1] of over 100 µM. For the same compound, the TGI [10] was 28.1 µM, the TGI [7] was over 100 µM and the TGI [8] was over 100 µM. It also gave a TGI [9] of over 100 µM and a TGI [4] of over 100 µM.

Compound `COc1cc(Br)c(CC2C3=C(CCN2C(=O)C2CCC2)CC(=O)CC3)cc1O` (configuration not stated) has a TGI [5] of 34.3 µM, a TGI [1] of 71.6 µM and a TGI [2] of 47.5 µM. The TGI [7] was over 100 µM, the TGI [9] was over 100 µM and the TGI [3] was over 100 µM. The TGI [4] was over 100 µM.

`COc1ccc(Sc2ccccc2N)cc1` showed a TGI [1] of 50.5 µM, a TGI [2] of over 100 µM and a TGI [7] of over 100 µM. The TGI [9] was over 100 µM, the TGI [3] was over 100 µM and the TGI [4] was 77.3 µM.

With `C=CCC(C(=O)Nc1cccc2[nH]cnc12)C(=O)OCC` (configuration not stated) the TGI [5] was over 100 µM, the TGI [6] was over 100 µM and the TGI [1] was over 100 µM. The TGI [2] was over 100 µM, the TGI [7] was over 100 µM and the TGI [8] was over 100 µM. For the same compound, the TGI [9] was over 100 µM, the TGI [3] was over 100 µM and the TGI [4] was over 100 µM.

Compound `C=C1CN(C2=NCCO2)C1` has a TGI [6] of over 100 µM, a TGI [1] of over 100 µM and a TGI [2] of over 100 µM. For the same compound, the TGI [10] was over 100 µM, the TGI [7] was over 100 µM and the TGI [8] was over 100 µM. It also gave a TGI [9] of over 100 µM, a TGI [3] of over 100 µM and a TGI [4] of over 100 µM.

`CN(Cc1cc(Cl)c(Cl)cc1NC(=O)CN)[C@H]1CCCC[C@@H]1N1CCCC1` showed a TGI [5] of 40.4 µM, a TGI [6] of over 100 µM and a TGI [1] of 47.9 µM. The TGI [10] was over 100 µM, the TGI [7] was over 100 µM and the TGI [9] was over 100 µM. The TGI [4] was 41.5 µM.

For `O=C1NCCS(=O)(=O)N2CCC[C@@H]12`, the TGI [5] was over 100 µM, the TGI [1] was over 100 µM and the TGI [2] was over 100 µM. The TGI [10] was over 100 µM, the TGI [7] was over 100 µM and the TGI [9] was over 100 µM. For the same compound, the TGI [3] was over 100 µM and the TGI [4] was over 100 µM.

With `Cc1ccc(CCC(=O)C(=O)O)s1` the TGI [5] was over 100 µM, the TGI [1] was over 100 µM and the TGI [2] was over 100 µM. For the same compound, the TGI [10] was 90.3 µM, the TGI [7] was over 100 µM and the TGI [9] was over 100 µM. For the same compound, the TGI [3] was over 100 µM and the TGI [4] was over 100 µM.

`COc1ccc2c(c1)OC[C@@H]1c3cc(O)c(OCc4ccccc4)cc3O[C@H]21` gave a TGI [5] of 51.9 µM, a TGI [1] of over 100 µM and a TGI [2] of over 100 µM. For the same compound, the TGI [10] was 84.8 µM, the TGI [7] was over 100 µM and the TGI [9] was 96.2 µM. It also gave a TGI [3] of 49 µM and a TGI [4] of over 100 µM.
